Data as given in the supplement of paper PMC4862054.

Key:
Settings in all cases: incubation time: 72 h
CAL-51 [1] = assay: normalised response (% of control), CellTiter-Glo; higher = more viable cells (100 = DMSO, 0 = benzethonium chloride kill control)
Experimental: (§1)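 DSRT, 72 h incubation, CellTox Green / CellTiter-Glo readout. Signal is normalised to DMSO and benzethonium chloride controls. Value is the normalised response at the highest dose.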

DU-4475 [2] = assay: as above
Experimental: as §1

MDA-MB-436 [3] = assay: as above
Experimental: as §1

CAL-85-1 [4] = assay: as above
Experimental: as §1

MDA-MB-453 [5] = assay: as above
Experimental: as §1

BT-474 [6] = assay: as above
Experimental: as §1

SK-BR-3 [7] = assay: as above
Experimental: as §1

MDA-MB-468 [8] = assay: as above
Experimental: as §1

HDQ-P1 [9] = assay: as above
Experimental: as §1

HCC1143 [10] = assay: as above
Experimental: as §1

MDA-MB-231 [11] = assay: as above
Experimental: as §1

BT-549 [12] = assay: as above
Experimental: as §1

Hs578T [13] = assay: as above
Experimental: as §1

CAL-148 [14] = assay: as above
Experimental: as §1

HCC1937 [15] = assay: as above
Experimental: as §1

CAL-120 [16] = assay: as above
Experimental: as §1

HCC1599 [17] = assay: as above
Experimental: as §1

MCF-10A [18] = assay: as above
Experimental: as §1

MFM-223 [19] = assay: as above
Experimental: as §1

CAL-51 [20] = assay: normalised response (% of control), CellTox Green; higher = less cell death (100 = DMSO, 0 = benzethonium chloride kill control)
How it was run: (§2)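 Breast cancer cell lines, seeded at 20 µl suspension per well, were incubated for 72 h in 384-well plates containing compound at 5 concentrations. These concentrations rose in 10-fold steps over a 10,000-fold range set for each compound. CellTox Green fluorescence (485/520 nm) was read, then CellTiter-Glo luminescence after 10 min at room temperature, and each plate was normalised to 0.1 % DMSO (100) and a positive kill control (0). Values are normalised signals, each at one concentration.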

DU-4475 [21] = assay: as above
How it was run: as §2

MDA-MB-436 [22] = assay: as above
How it was run: as §2

CAL-85-1 [23] = assay: as above
How it was run: as §2

MDA-MB-453 [24] = assay: as above
How it was run: as §2

BT-474 [25] = assay: as above
How it was run: as §2

MDA-MB-468 [26] = assay: as above
How it was run: as §2

HDQ-P1 [27] = assay: as above
How it was run: as §2

HCC1143 [28] = assay: as above
How it was run: as §2

MDA-MB-231 [29] = assay: as above
How it was run: as §2

BT-549 [30] = assay: as above
How it was run: as §2

Hs578T [31] = assay: as above
How it was run: as §2

CAL-148 [32] = assay: as above
How it was run: as §2

HCC1937 [33] = assay: as above
How it was run: as §2

CAL-120 [34] = assay: as above
How it was run: as §2

HCC1599 [35] = assay: as above
How it was run: as §2

MCF-10A [36] = assay: as above
How it was run: as §2

MFM-223 [37] = assay: as above
How it was run: as §2

CAL-51 [38] = assay: normalised response (% of control), CellTiter-Glo; higher = more viable cells (100 = DMSO, 0 = benzethonium chloride kill control); remark: listed apart in the source
How it was run: as §2

DU-4475 [39] = assay: as above; remark: listed apart in the source
How it was run: as §2

MDA-MB-436 [40] = assay: as above; remark: listed apart in the source
How it was run: as §2

CAL-85-1 [41] = assay: as above; remark: listed apart in the source
How it was run: as §2

MDA-MB-453 [42] = assay: as above; remark: listed apart in the source
How it was run: as §2

BT-474 [43] = assay: as above; remark: listed apart in the source
How it was run: as §2

SK-BR-3 [44] = assay: as above; remark: listed apart in the source
How it was run: as §2

MDA-MB-468 [45] = assay: as above; remark: listed apart in the source
How it was run: as §2

HDQ-P1 [46] = assay: as above; remark: listed apart in the source
How it was run: as §2

HCC1143 [47] = assay: as above; remark: listed apart in the source
How it was run: as §2

MDA-MB-231 [48] = assay: as above; remark: listed apart in the source
How it was run: as §2

BT-549 [49] = assay: as above; remark: listed apart in the source
How it was run: as §2

Hs578T [50] = assay: as above; remark: listed apart in the source
How it was run: as §2

CAL-148 [51] = assay: as above; remark: listed apart in the source
How it was run: as §2

HCC1937 [52] = assay: as above; remark: listed apart in the source
How it was run: as §2

CAL-120 [53] = assay: as above; remark: listed apart in the source
How it was run: as §2

HCC1599 [54] = assay: as above; remark: listed apart in the source
How it was run: as §2

MCF-10A [55] = assay: as above; remark: listed apart in the source
How it was run: as §2

MFM-223 [56] = assay: as above; remark: listed apart in the source
How it was run: as §2

| SMILES | normalised response (CAL-51 [20]) | normalised response (DU-4475 [21]) | normalised response (MDA-MB-436 [22]) | normalised response (CAL-85-1 [23]) | normalised response (MDA-MB-453 [24]) | normalised response (BT-474 [25]) | normalised response (MDA-MB-468 [26]) | normalised response (HDQ-P1 [27]) | normalised response (HCC1143 [28]) | normalised response (MDA-MB-231 [29]) | normalised response (BT-549 [30]) | normalised response (Hs578T [31]) | normalised response (CAL-148 [32]) | normalised response (HCC1937 [33]) | normalised response (CAL-120 [34]) | normalised response (HCC1599 [35]) | normalised response (MCF-10A [36]) | normalised response (MFM-223 [37]) | normalised response (CAL-51 [38]) | normalised response (DU-4475 [39]) | other results |
| --- | --- | --- | --- | --- | --- | --- | --- | --- | --- | --- | --- | --- | --- | --- | --- | --- | --- | --- | --- | --- | --- |
| Nc1nccc(-c2c(-c3ccc(F)cc3)ncn2C2CCCCC2)n1 (10000 nM) | 105% | 98.6% | 92.7% | 71.6% | 104% | 103% | 114% | 95.7% | 110% | 109% | 100% | 135% | 99.9% | 69.8% | 105% | 98.1% | 11.8% | 96% |  |  | normalised response (CAL-51 [1]): 89.2%; normalised response (DU-4475 [2]): 91.7%; normalised response (MDA-MB-436 [3]): 96%; normalised response (CAL-85-1 [4]): 75.7%; normalised response (MDA-MB-453 [5]): 84.9%; normalised response (BT-474 [6]): 83.6%; normalised response (SK-BR-3 [7]): 71.8%; normalised response (MDA-MB-468 [8]): 70.2%; normalised response (HDQ-P1 [9]): 70.5%; normalised response (HCC1143 [10]): 99.7%; normalised response (MDA-MB-231 [11]): 84.4%; normalised response (BT-549 [12]): 92.2%; normalised response (Hs578T [13]): 99.9%; normalised response (CAL-148 [14]): 110%; normalised response (HCC1937 [15]): 80.2%; normalised response (CAL-120 [16]): 107%; normalised response (HCC1599 [17]): 101%; normalised response (MCF-10A [18]): 48.5%; normalised response (MFM-223 [19]): 88% |
| Cc1cc(C(C)Nc2ccccc2)c2nc(N3CCOCC3)cc(=O)n2c1 (stereo not drawn) [TGX-221] (10000 nM) | 93.5% | 94.7% | 78.3% | 106% | 90.7% | 92.8% | 152% |  | 76.9% | 69% | 84.2% | -33.5% | 97.4% | 79.8% | 96.3% | 91% |  | 94.5% |  |  | normalised response (CAL-51 [1]): 67.6%; normalised response (DU-4475 [2]): 95.6%; normalised response (MDA-MB-436 [3]): 70.9%; normalised response (CAL-85-1 [4]): 98.2%; normalised response (MDA-MB-453 [5]): 76.1%; normalised response (BT-474 [6]): 70.9%; normalised response (SK-BR-3 [7]): 78%; normalised response (MDA-MB-468 [8]): 58.1%; normalised response (HDQ-P1 [9]): 88.6%; normalised response (HCC1143 [10]): 86.8%; normalised response (MDA-MB-231 [11]): 72.5%; normalised response (BT-549 [12]): 78.7%; normalised response (Hs578T [13]): 79%; normalised response (CAL-148 [14]): 105%; normalised response (HCC1937 [15]): 78.6%; normalised response (CAL-120 [16]): 88.5%; normalised response (HCC1599 [17]): 99.2%; normalised response (MCF-10A [18]): 82.5%; normalised response (MFM-223 [19]): 88.7% |
| COc1cc(Nc2ncc(F)c(Nc3ccc4c(n3)NC(=O)C(C)(C)O4)n2)cc(OC)c1OC [Tamatinib] (100 nM) | 115% | 104% | 104% | 113% | 109% | 101% | 83.2% | 107% | 90.7% | 105% | 94.5% | 112% | 73.6% | 93.6% | 103% | 99.2% | 107% | 91.3% | 104% | 105% | normalised response (MDA-MB-436 [40]): 99%; normalised response (CAL-85-1 [41]): 96.7%; normalised response (MDA-MB-453 [42]): 108%; normalised response (BT-474 [43]): 101%; normalised response (SK-BR-3 [44]): 111%; normalised response (MDA-MB-468 [45]): 93.8%; normalised response (HDQ-P1 [46]): 97.9%; normalised response (HCC1143 [47]): 105%; normalised response (MDA-MB-231 [48]): 108%; normalised response (BT-549 [49]): 98.9%; normalised response (Hs578T [50]): 102%; normalised response (CAL-148 [51]): 112%; normalised response (HCC1937 [52]): 103%; normalised response (CAL-120 [53]): 96.2%; normalised response (HCC1599 [54]): 123%; normalised response (MCF-10A [55]): 104%; normalised response (MFM-223 [56]): 110% |
| C[C@@H]1CCN(C(=O)CC#N)C[C@@H]1N(C)c1ncnc2[nH]ccc12 [Tofacitinib] (50 nM) | 113% | 102% | 97.8% | 99.7% | 103% | 103% | 127% | 114% | 104% | 104% | 94.2% | 93.4% | 90.6% | 123% | 99.7% | 116% | 105% | 107% | 88.1% | 106% | normalised response (MDA-MB-436 [40]): 98.7%; normalised response (CAL-85-1 [41]): 109%; normalised response (MDA-MB-453 [42]): 102%; normalised response (BT-474 [43]): 102%; normalised response (SK-BR-3 [44]): 104%; normalised response (MDA-MB-468 [45]): 110%; normalised response (HDQ-P1 [46]): 104%; normalised response (HCC1143 [47]): 106%; normalised response (MDA-MB-231 [48]): 104%; normalised response (BT-549 [49]): 104%; normalised response (Hs578T [50]): 109%; normalised response (CAL-148 [51]): 114%; normalised response (HCC1937 [52]): 96.5%; normalised response (CAL-120 [53]): 99.8%; normalised response (HCC1599 [54]): 105%; normalised response (MCF-10A [55]): 101%; normalised response (MFM-223 [56]): 110% |
| FC(F)c1nc2ccccc2n1-c1nc(N2CCOCC2)nc(N2CCOCC2)n1 [ZSTK474] (100 nM) | 102% | 105% | 101% | 108% | 85.6% | 102% | 97.3% | 101% | 115% | 110% | 111% | 102% | 100% | 64.3% | 102% | 101% | 85% | 102% | 92.6% | 97% | normalised response (MDA-MB-436 [40]): 88.5%; normalised response (CAL-85-1 [41]): 99%; normalised response (MDA-MB-453 [42]): 86.8%; normalised response (BT-474 [43]): 85.3%; normalised response (SK-BR-3 [44]): 72.9%; normalised response (MDA-MB-468 [45]): 96.9%; normalised response (HDQ-P1 [46]): 83.4%; normalised response (HCC1143 [47]): 99.9%; normalised response (MDA-MB-231 [48]): 91.1%; normalised response (BT-549 [49]): 80.4%; normalised response (Hs578T [50]): 92.4%; normalised response (CAL-148 [51]): 94.7%; normalised response (HCC1937 [52]): 87.7%; normalised response (CAL-120 [53]): 101%; normalised response (HCC1599 [54]): 98%; normalised response (MCF-10A [55]): 93%; normalised response (MFM-223 [56]): 97% |
